# Measurements from the supplement of paper PMC10307832.
# Key:
# Assay in all cases: relative viability (nuclei count vs DMSO), 5 days (fraction); higher = more cells survive
# [1] = tested on: LOU-NH91
# In short: (§1)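 Medians of duplicate plates are given as relative viability. That measure is the nuclei count in treated wells divided by the count in vehicle wells. Counts were taken on 4× images of lung cancer cell lines in 1536-well plates, 5 days after pin-tool dosing the day after seeding with one drug alone or a fixed anchor-drug dose plus five library-drug doses (not always all listed) in √10 steps.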
# [2] = tested on: NCI-H3122
# In short: as §1
# [3] = tested on: NCI-H2085
# In short: as §1
# [4] = tested on: HCC-366
# In short: as §1
# [5] = tested on: NCI-H1437
# In short: as §1
# [6] = tested on: LXF-289
# In short: as §1
# [7] = tested on: NCI-H1623
# In short: as §1
# [8] = tested on: NCI-H1299
# In short: as §1
# [9] = tested on: NCI-H1703
# In short: as §1
# [10] = tested on: NCI-H1648
# In short: as §1
# [11] = tested on: IA-LM
# In short: as §1
# [12] = tested on: EBC-1
# In short: as §1
# [13] = tested on: A549
# In short: as §1
# [14] = tested on: HCC-44
# In short: as §1
# [15] = tested on: Calu-6
# In short: as §1
smiles,measurement,setting,value
CC(=O)O[C@@]12CO[C@@H]1C[C@H](O)[C@@]1(C)C(=O)[C@H](O)C3=C(C)[C@@H](OC(=O)[C@H](O)[C@@H](NC(=O)OC(C)(C)C)c4ccccc4)C[C@@](O)([C@@H](OC(=O)c4ccccc4)[C@H]21)C3(C)C [Docetaxel] + Cc1nc(Nc2ncc(C(=O)Nc3c(C)cccc3Cl)s2)cc(N2CCN(CCO)CC2)n1 [Dasatinib] (partner 0.075 µM),relative viability,[1]; first compound 0.0002 µM,0.553
same,relative viability,[1]; first compound 0.000632 µM,0.533
same,relative viability,[1]; first compound 0.002 µM,0.345
same,relative viability,[1]; first compound 0.006325 µM,0.304
same,relative viability,[1]; first compound 0.02 µM,0.247
same,relative viability,[2]; first compound 0.0002 µM,0.822
same,relative viability,[2]; first compound 0.000632 µM,0.694
same,relative viability,[2]; first compound 0.002 µM,0.508
same,relative viability,[2]; first compound 0.006325 µM,0.102
same,relative viability,[2]; first compound 0.02 µM,0.078
same,relative viability,[3]; first compound 0.0002 µM,0.229
same,relative viability,[3]; first compound 0.000632 µM,0.268
same,relative viability,[3]; first compound 0.002 µM,0.217
same,relative viability,[3]; first compound 0.006325 µM,0.24
same,relative viability,[3]; first compound 0.02 µM,0.176
same,relative viability,[4]; first compound 0.0002 µM,0.569
same,relative viability,[4]; first compound 0.000632 µM,0.255
same,relative viability,[4]; first compound 0.002 µM,0.119
same,relative viability,[4]; first compound 0.006325 µM,0.0384
same,relative viability,[4]; first compound 0.02 µM,0.0228
same,relative viability,[5]; first compound 0.0002 µM,0.339
same,relative viability,[5]; first compound 0.000632 µM,0.259
same,relative viability,[5]; first compound 0.002 µM,0.268
same,relative viability,[5]; first compound 0.006325 µM,0.174
same,relative viability,[5]; first compound 0.02 µM,0.122
same,relative viability,[6]; first compound 0.0002 µM,0.181
same,relative viability,[6]; first compound 0.000632 µM,0.154
same,relative viability,[6]; first compound 0.002 µM,0.0677
same,relative viability,[6]; first compound 0.006325 µM,0.0536
same,relative viability,[6]; first compound 0.02 µM,0.0314
same,relative viability,[7]; first compound 0.0002 µM,0.555
same,relative viability,[7]; first compound 0.000632 µM,0.529
same,relative viability,[7]; first compound 0.002 µM,0.472
same,relative viability,[7]; first compound 0.006325 µM,0.313
same,relative viability,[7]; first compound 0.02 µM,0.239
CC(=O)O[C@@]12CO[C@@H]1C[C@H](O)[C@@]1(C)C(=O)[C@H](O)C3=C(C)[C@@H](OC(=O)[C@H](O)[C@@H](NC(=O)OC(C)(C)C)c4ccccc4)C[C@@](O)([C@@H](OC(=O)c4ccccc4)[C@H]21)C3(C)C [Docetaxel] + O=C(c1cc(Cc2n[nH]c(=O)c3ccccc23)ccc1F)N1CCN(C(=O)C2CC2)CC1 [Olaparib] (partner 8 µM),relative viability,[1]; first compound 0.0002 µM,0.915
same,relative viability,[1]; first compound 0.000632 µM,0.839
same,relative viability,[1]; first compound 0.002 µM,0.567
same,relative viability,[1]; first compound 0.006325 µM,0.396
same,relative viability,[1]; first compound 0.02 µM,0.315
same,relative viability,[2]; first compound 0.0002 µM,0.658
same,relative viability,[2]; first compound 0.000632 µM,0.623
same,relative viability,[2]; first compound 0.002 µM,0.521
same,relative viability,[2]; first compound 0.006325 µM,0.202
same,relative viability,[2]; first compound 0.02 µM,0.129
same,relative viability,[8]; first compound 0.0002 µM,0.95
same,relative viability,[8]; first compound 0.000632 µM,0.9
same,relative viability,[8]; first compound 0.002 µM,0.628
same,relative viability,[8]; first compound 0.006325 µM,0.351
same,relative viability,[8]; first compound 0.02 µM,0.241
same,relative viability,[9]; first compound 0.0002 µM,0.372
same,relative viability,[9]; first compound 0.000632 µM,0.538
same,relative viability,[9]; first compound 0.002 µM,0.204
same,relative viability,[9]; first compound 0.006325 µM,0.174
same,relative viability,[9]; first compound 0.02 µM,0.0787
same,relative viability,[3]; first compound 0.0002 µM,0.725
same,relative viability,[3]; first compound 0.000632 µM,0.826
same,relative viability,[3]; first compound 0.002 µM,0.747
same,relative viability,[3]; first compound 0.006325 µM,0.431
same,relative viability,[3]; first compound 0.02 µM,0.298
same,relative viability,[10]; first compound 0.0002 µM,0.773
same,relative viability,[10]; first compound 0.000632 µM,0.563
same,relative viability,[10]; first compound 0.002 µM,0.338
same,relative viability,[10]; first compound 0.006325 µM,0.279
same,relative viability,[10]; first compound 0.02 µM,0.21
same,relative viability,[4]; first compound 0.0002 µM,0.245
same,relative viability,[4]; first compound 0.000632 µM,0.115
same,relative viability,[4]; first compound 0.002 µM,0.0486
same,relative viability,[4]; first compound 0.006325 µM,0.0381
same,relative viability,[4]; first compound 0.02 µM,0.0133
same,relative viability,[11]; first compound 0.0002 µM,0.687
same,relative viability,[11]; first compound 0.000632 µM,0.326
same,relative viability,[11]; first compound 0.002 µM,0.153
same,relative viability,[11]; first compound 0.006325 µM,0.0861
same,relative viability,[11]; first compound 0.02 µM,0.074
same,relative viability,[12]; first compound 0.0002 µM,0.579
same,relative viability,[12]; first compound 0.000632 µM,0.358
same,relative viability,[12]; first compound 0.002 µM,0.213
same,relative viability,[12]; first compound 0.006325 µM,0.217
same,relative viability,[12]; first compound 0.02 µM,0.162
same,relative viability,[5]; first compound 0.0002 µM,0.613
same,relative viability,[5]; first compound 0.000632 µM,0.442
same,relative viability,[5]; first compound 0.002 µM,0.384
same,relative viability,[5]; first compound 0.006325 µM,0.269
same,relative viability,[5]; first compound 0.02 µM,0.177
same,relative viability,[13]; first compound 0.0002 µM,0.341
same,relative viability,[13]; first compound 0.000632 µM,0.0796
same,relative viability,[13]; first compound 0.002 µM,0.0511
same,relative viability,[13]; first compound 0.006325 µM,0.0681
same,relative viability,[13]; first compound 0.02 µM,0.0279
same,relative viability,[6]; first compound 0.0002 µM,1.06
same,relative viability,[6]; first compound 0.000632 µM,0.393
same,relative viability,[6]; first compound 0.002 µM,0.195
same,relative viability,[6]; first compound 0.006325 µM,0.111
same,relative viability,[6]; first compound 0.02 µM,0.0839
same,relative viability,[14]; first compound 0.0002 µM,0.978
same,relative viability,[14]; first compound 0.000632 µM,0.954
same,relative viability,[14]; first compound 0.002 µM,0.908
same,relative viability,[14]; first compound 0.006325 µM,0.682
same,relative viability,[14]; first compound 0.02 µM,0.616
same,relative viability,[15]; first compound 0.0002 µM,0.604
same,relative viability,[15]; first compound 0.000632 µM,0.454
same,relative viability,[15]; first compound 0.002 µM,0.243
same,relative viability,[15]; first compound 0.006325 µM,0.128
same,relative viability,[15]; first compound 0.02 µM,0.0895
